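Assay format: 96-well plates, 48-hour exposure. GI50 = concentration required for 50% inhibition of growth.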 Active and inactive are the calls of the source. No stated cut-off is given here; in the data, active = GI50 up to about 1.1 µM and inactive = higher.
Key:
Assay in all cases: DTP human tumour cell line panel, 48 h
[1] = tested on: 786-0
[2] = tested on: A549
[3] = tested on: ACHN
[4] = tested on: CAKI-1
[5] = tested on: COLO 205
[6] = tested on: EKVX
[7] = tested on: HCC 2998
[8] = tested on: MCF7
[9] = tested on: MDA-MB-231
[10] = tested on: NCI/ADR-RES
[11] = tested on: OVCAR-4
[12] = tested on: OVCAR-8
[13] = tested on: RPMI-8226
[14] = tested on: SF-295
[15] = tested on: SK-MEL-28
[16] = tested on: SN12C
[17] = tested on: SR
[18] = tested on: UACC-62
[19] = tested on: UO-31

SMILES | GI50 [1] | GI50 [2] | GI50 [3] | GI50 [4] | GI50 [5] | GI50 [6] | GI50 [7] | GI50 [8] | GI50 [9] | GI50 [10] | GI50 [11] | GI50 [12] | GI50 [13] | GI50 [14] | GI50 [15] | GI50 [16] | GI50 [17] | GI50 [18] | GI50 [19]
ClCC[N+]12CC[N+](CCCl)(CC1)C2 | > 100 µM (inactive) | > 100 µM (inactive) | > 100 µM (inactive) | > 75.5 µM (inactive) | > 100 µM (inactive) | > 100 µM (inactive) | > 100 µM (inactive) | > 100 µM (inactive) | > 100 µM (inactive) | > 100 µM (inactive) | > 100 µM (inactive) | > 100 µM (inactive) | > 100 µM (inactive) | > 100 µM (inactive) | > 100 µM (inactive) | > 100 µM (inactive) | 55 µM (inactive) | > 100 µM (inactive) | > 100 µM (inactive)
CC(C)/C=N\n1c(N)c(C#N)c(C#N)c1C(C)C | 40.2 µM (inactive) | 25.2 µM (inactive) | 20.3 µM (inactive) | 20.5 µM (inactive) | 18.7 µM (inactive) | 20.4 µM (inactive) | 13.4 µM (inactive) | 38.5 µM (inactive) | 19.4 µM (inactive) | 23.3 µM (inactive) | 18.2 µM (inactive) | 20.3 µM (inactive) | 14.6 µM (inactive) | 16.8 µM (inactive) |  | 28.6 µM (inactive) | 0.951 µM (active) | 12.3 µM (inactive) | 15.8 µM (inactive)
COc1cc([C@@H]2OC[C@@H]3C(c4cc(OC)c5c(c4)OCO5)OC[C@@H]32)cc(OC)c1OC (some centres undefined) | > 100 µM (inactive) | > 100 µM (inactive) | > 100 µM (inactive) | > 100 µM (inactive) | > 100 µM (inactive) | > 100 µM (inactive) | > 100 µM (inactive) | > 100 µM (inactive) | > 100 µM (inactive) | 31.6 µM (inactive) | 92.5 µM (inactive) | 69.8 µM (inactive) | 49.5 µM (inactive) | > 100 µM (inactive) | > 100 µM (inactive) |  | 89.1 µM (inactive) | 49.1 µM (inactive) | > 100 µM (inactive)
CC(C)(C)OC(=O)NC(Cc1ccc(O)cn1)C(N)=O (centres undefined) | > 100 µM (inactive) | > 100 µM (inactive) | > 100 µM (inactive) | > 100 µM (inactive) | > 100 µM (inactive) | > 100 µM (inactive) | > 100 µM (inactive) | > 100 µM (inactive) | > 100 µM (inactive) | > 100 µM (inactive) | > 100 µM (inactive) | > 100 µM (inactive) | > 100 µM (inactive) | > 100 µM (inactive) | > 100 µM (inactive) | > 100 µM (inactive) | > 100 µM (inactive) |  | > 100 µM (inactive)
CCN(CC)c1ccc(/C=C/c2ccnc3ccccc23)cc1 | > 100 µM (inactive) | > 100 µM (inactive) | > 100 µM (inactive) | > 100 µM (inactive) | > 100 µM (inactive) | > 100 µM (inactive) | > 100 µM (inactive) | > 100 µM (inactive) | > 100 µM (inactive) | > 100 µM (inactive) | > 100 µM (inactive) |  | > 100 µM (inactive) | > 100 µM (inactive) | > 100 µM (inactive) | > 100 µM (inactive) | > 100 µM (inactive) | > 100 µM (inactive) | > 100 µM (inactive)
C[C@@H](Br)[C@@H]1CC[C@H]2c3[nH]c4ccccc4c3CCN2C1 | 18.6 µM (inactive) | 34.4 µM (inactive) | 33.8 µM (inactive) | 16.6 µM (inactive) | 13.5 µM (inactive) | 33.1 µM (inactive) | 16 µM (inactive) | 23.7 µM (inactive) | 16.1 µM (inactive) | 20.2 µM (inactive) | 28 µM (inactive) | 26.9 µM (inactive) | 13.6 µM (inactive) | 19.5 µM (inactive) | 24.4 µM (inactive) |  | 16.5 µM (inactive) | 14.5 µM (inactive) | 24.8 µM (inactive)

Source: ChEMBL document CHEMBL1201862, “PubChem BioAssay data set” (2004)
